Where only a bound is given, the exact number is not on record here.

The target in the first experiment is T1, VLA-4 (Homo sapiens, UniProt P05556+P13612).
T1 construct: host or cells: Jurkat clone E6-1
T1 sequence (P13612 34-1032): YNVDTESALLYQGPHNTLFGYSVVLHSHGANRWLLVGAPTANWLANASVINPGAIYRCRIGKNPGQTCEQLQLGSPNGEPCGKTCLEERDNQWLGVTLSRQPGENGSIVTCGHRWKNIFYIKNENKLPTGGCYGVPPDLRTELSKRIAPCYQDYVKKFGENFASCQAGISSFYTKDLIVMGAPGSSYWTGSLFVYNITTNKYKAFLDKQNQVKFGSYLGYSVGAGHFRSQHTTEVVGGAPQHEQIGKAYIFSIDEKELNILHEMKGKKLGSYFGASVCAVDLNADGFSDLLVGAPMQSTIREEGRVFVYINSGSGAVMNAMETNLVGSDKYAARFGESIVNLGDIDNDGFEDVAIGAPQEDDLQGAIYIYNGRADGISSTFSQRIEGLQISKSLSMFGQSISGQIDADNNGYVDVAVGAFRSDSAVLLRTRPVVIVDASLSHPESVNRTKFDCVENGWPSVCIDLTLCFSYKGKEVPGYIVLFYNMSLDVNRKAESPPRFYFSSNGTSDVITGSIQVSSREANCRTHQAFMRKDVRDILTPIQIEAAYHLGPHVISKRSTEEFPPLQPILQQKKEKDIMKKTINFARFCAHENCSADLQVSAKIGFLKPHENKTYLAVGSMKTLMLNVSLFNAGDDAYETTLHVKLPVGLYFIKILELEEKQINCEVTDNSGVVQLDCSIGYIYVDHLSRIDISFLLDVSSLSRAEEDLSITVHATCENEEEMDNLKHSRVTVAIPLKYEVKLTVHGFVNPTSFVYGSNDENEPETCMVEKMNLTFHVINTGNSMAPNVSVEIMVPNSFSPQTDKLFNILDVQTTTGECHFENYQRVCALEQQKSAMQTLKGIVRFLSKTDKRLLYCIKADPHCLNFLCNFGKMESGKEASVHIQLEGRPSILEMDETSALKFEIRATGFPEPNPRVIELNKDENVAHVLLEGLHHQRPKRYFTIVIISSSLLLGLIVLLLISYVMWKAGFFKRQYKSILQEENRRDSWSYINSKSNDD
T1 sequence (P05556 21-798): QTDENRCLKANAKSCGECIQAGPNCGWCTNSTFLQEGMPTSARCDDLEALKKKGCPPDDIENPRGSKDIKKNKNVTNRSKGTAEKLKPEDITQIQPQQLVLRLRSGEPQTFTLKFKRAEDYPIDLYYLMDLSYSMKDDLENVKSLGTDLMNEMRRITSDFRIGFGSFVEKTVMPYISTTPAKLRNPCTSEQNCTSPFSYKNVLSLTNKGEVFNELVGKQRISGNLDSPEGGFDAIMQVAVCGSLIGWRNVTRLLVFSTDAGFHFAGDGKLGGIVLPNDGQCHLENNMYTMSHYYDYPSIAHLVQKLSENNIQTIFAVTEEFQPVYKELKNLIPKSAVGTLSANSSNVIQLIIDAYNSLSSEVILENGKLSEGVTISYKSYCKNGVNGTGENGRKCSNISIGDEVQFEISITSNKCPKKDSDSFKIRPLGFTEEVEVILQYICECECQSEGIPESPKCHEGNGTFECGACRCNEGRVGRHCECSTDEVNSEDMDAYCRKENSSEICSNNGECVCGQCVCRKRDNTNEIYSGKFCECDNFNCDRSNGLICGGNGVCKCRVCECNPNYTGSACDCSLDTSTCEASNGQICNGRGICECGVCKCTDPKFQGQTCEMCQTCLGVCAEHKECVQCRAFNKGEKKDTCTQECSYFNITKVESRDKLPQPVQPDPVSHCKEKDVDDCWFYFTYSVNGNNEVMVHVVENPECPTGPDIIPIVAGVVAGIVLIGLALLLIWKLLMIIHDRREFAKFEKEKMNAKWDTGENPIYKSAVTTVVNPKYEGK
Briefly: Adhesion of Jurkat cells to immobilized VCAM-1 (domains 1-3). It is filed as cell-based. Set-up: scale not given here. Particulars: adhesion of CFSE-labeled Jurkat cells to recombinant human VCAM-1 (domains 1-3) coated plates; compounds as yielded by solid phase synthesis, purity about 40-90%. Summed up: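 CFSE-labelled Jurkat E6-1 cells in Tris buffer pH 7.4 with 2 mM MnCl2 were added to wells coated with insect-cell-expressed human VCAM-1 domains 1-3 (0.5 μg/ml coating solution); labelled cells were incubated for 30 min at 37 °C with the VLA-4 inhibitor.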
Consider `O=C(N[C@@H](Cc1ccc(-c2ccccc2)cc1)C(=O)O)C1CCCN(S(=O)(=O)c2c(Cl)cccc2Cl)C1` (stereo partly drawn) [Example 1.59], for which the IC50 – broadly, the concentration needed to halve the response being measured – is on record as “C-D”.

On to `COc1ccc(-c2ccc(C[C@H](NC(=O)C3CCCN(S(=O)(=O)c4ccccc4C(F)(F)F)C3)C(=O)O)cc2)cc1` (stereo partly drawn) [Example 1.80], for which the 50% inhibitory concentration (IC50) entry was “C-D”.

On to `O=C(N[C@@H](Cc1ccc(-c2cc(Cl)ccc2Cl)cc1)C(=O)O)C1CCCN(c2ncnc(N3CCCCC3)c2F)C1` (stereo partly drawn) [Example 2.35], for which the IC50 entry is listed as “C-D”.

For the compound `O=C(N[C@@H](Cc1ccc(-c2ccc(Cl)c(Cl)c2)cc1)C(=O)O)C1CCCN(c2ncnc(NCCN3CCCC3)c2F)C1` (stereo partly drawn) [Example 2.49], the IC50 result is “C-D”.

Regarding `Cc1ccc(-c2ccc(C[C@H](NC(=O)C3CCCN(c4ncnc(N5CCOCC5)c4F)C3)C(=O)O)cc2)cc1` (stereo partly drawn) [Example 2.7], the IC50 entry is “C-D”.

On to `COc1ccc(-c2ccc(C[C@H](NC(=O)C3CCCN(c4ncnc(NCc5ccccn5)c4F)C3)C(=O)O)cc2)cc1` (stereo partly drawn) [Example 2.14], for which the IC50 entry is on record as “C-D”.

Take `O=C(N[C@@H](Cc1ccc(-c2ccccc2)cc1)C(=O)O)C1CCCN(S(=O)(=O)Cc2ccccc2)C1` (stereo partly drawn) [Example 1.63]: the IC50 result is recorded as “C-D”.

For the compound `CN(Cc1ccccc1)c1ncnc(N2CCCC(C(=O)N[C@@H](Cc3ccc(-c4ccc(Cl)c(Cl)c4)cc3)C(=O)O)C2)c1F` (stereo partly drawn) [Example 2.45], the IC50 result is “C-D”.

Turning to `O=C(N[C@@H](Cc1ccc(-c2cc(Cl)ccc2Cl)cc1)C(=O)O)C1CCCN(S(=O)(=O)c2c(Cl)cccc2Cl)C1` (stereo partly drawn) [Example 1.107], the concentration for half-maximal inhibition (IC50) entry was “C-D”.

In the case of `COc1ccc(-c2ccc(C[C@H](NC(=O)C3CCCN(C(=O)c4ccccc4OC)C3)C(=O)O)cc2)cc1` (stereo partly drawn) [Example 1.27], the half-inhibitory concentration (IC50) result is recorded as “C-D”.

Regarding `O=C(N[C@@H](Cc1ccc(-c2ccccc2)cc1)C(=O)O)C1CCCN(C(=O)c2ccccc2Cl)C1` (stereo partly drawn) [Example 1.13], the IC50 entry was “C-D”.

Take `COC(=O)c1ccccc1S(=O)(=O)N1CCCC(C(=O)N[C@@H](Cc2ccc(-c3ccc(C)cc3)cc2)C(=O)O)C1` (stereo partly drawn) [Example 1.67]: the concentration for half-maximal inhibition (IC50) result was “C-D”.

In the case of `O=C(N[C@@H](Cc1ccc(-c2ccc(Cl)cc2Cl)cc1)C(=O)O)C1CCCN(S(=O)(=O)c2ccccc2C(F)(F)F)C1` (stereo partly drawn) [Example 1.99], the IC50 entry is “C-D”.

In the case of `Cc1ccccc1-c1ccc(C[C@H](NC(=O)C2CCCN(C(=O)Cc3ccccc3)C2)C(=O)O)cc1` (stereo partly drawn) [Example 1.30], the IC50 result is “C-D”.

Take `O=C(N[C@@H](Cc1ccc(-c2ccccc2)cc1)C(=O)O)C1CCCN(C(=O)c2cccc(Cl)c2)C1` (stereo partly drawn) [Example 1.8]: the IC50 result is recorded as “C-D”.

On to `Cc1ccccc1-c1ccc(C[C@H](NC(=O)C2CCCN(c3ncnc(NCc4ccccn4)c3F)C2)C(=O)O)cc1` (stereo partly drawn) [Example 2.24], for which the concentration for half-maximal inhibition (IC50) result was “C-D”.

Take `CCCNc1ncnc(N2CCCC(C(=O)N[C@@H](Cc3ccc(-c4ccc(Cl)c(Cl)c4)cc3)C(=O)O)C2)c1F` (stereo partly drawn) [Example 2.47]: the IC50 result is listed as “C-D”.

Turning to `O=C(N[C@@H](Cc1ccc(-c2ccc(Cl)c(Cl)c2)cc1)C(=O)O)C1CCCN(c2ncnc(NC3Cc4ccccc4C3)c2F)C1` (stereo partly drawn) [Example 2.48], the IC50 result is “C-D”.

Consider `COc1ccc(Cl)cc1S(=O)(=O)N1CCCC(C(=O)N[C@@H](Cc2ccc(-c3cc(Cl)ccc3Cl)cc2)C(=O)O)C1` (stereo partly drawn) [Example 1.110], for which the IC50 result is given as “C-D”.

For `Cc1ccccc1-c1ccc(C[C@H](NC(=O)C2CCCN(c3ncnc(N4CCOCC4)c3F)C2)C(=O)O)cc1` (stereo partly drawn) [Example 2.27], the half-inhibitory concentration (IC50) result is “C-D”.

In the case of `Cc1cc(Cl)c(CC(=O)N2CCCC(C(=O)N[C@@H](Cc3ccc(-c4ccc(Cl)cc4Cl)cc3)C(=O)O)C2)c(Cl)c1` (stereo partly drawn) [Example 1.45], the IC50 entry is “C-D”.

In the case of `CCCCN(C)c1ncnc(N2CCCC(C(=O)N[C@@H](Cc3ccc(-c4ccc(OC)cc4)cc3)C(=O)O)C2)c1F` (stereo partly drawn) [Example 2.23], the IC50 result is “C-D”.

The experiment is the same for the next values; noted with them: adhesion of CFSE-labeled Jurkat cells to recombinant human VCAM-1 (domains 1-3) coated plates; compounds as yielded by solid phase synthesis, purity about 40-90%; read-out: IC50.
In the case of `COc1ccccc1NC(=O)N1CCCC(C(=O)N[C@@H](Cc2ccc(NC(=O)N3CCOCC3)cc2)C(=O)O)C1` (stereo partly drawn) [Example 4.63], the IC50 was in the range of 500 to 2000 nM.

For `CN(C)CCCNc1ncnc(N2CCCC(C(=O)N[C@@H](Cc3ccc(NC(=O)N4CCN(c5ccccc5)CC4)cc3)C(=O)O)C2)c1F` (stereo partly drawn) [Example 5.15], the IC50 lay in the range of 2000 to 10000 nM.

Consider `O=C(N[C@@H](Cc1ccc(-c2cc(Cl)ccc2Cl)cc1)C(=O)O)C1CCCN(c2ncnc(NCc3ccccn3)c2F)C1` (stereo partly drawn) [Example 2.1], for which the IC50 is no more than 500 nM.

With `CN(c1ncnc(N2CCCC(C(=O)N[C@@H](Cc3ccc(NC(=O)N4CCc5ccccc5C4)cc3)C(=O)O)C2)c1F)C1CCCCC1` (stereo partly drawn) [Example 5.38], the IC50 lay in the range of 500 to 2000 nM.

For the compound `Cc1ccccc1-c1ccc(C[C@H](NC(=O)C2CCCN(S(=O)(=O)c3ccc4ccccc4c3)C2)C(=O)O)cc1` (stereo partly drawn) [Example 1.87], the IC50 lay within 500 to 2000 nM.

On to `Cc1ccccc1-c1ccc(C[C@H](NC(=O)C2CCCN(C(=O)c3cccc(Cl)c3)C2)C(=O)O)cc1` (stereo partly drawn) [Example 1.31], for which the IC50 was in the range of 2000 to 10000 nM.

`CN1CCN(C(=O)Nc2ccc(C[C@H](NC(=O)C3CCCN(c4ncnc(NCC5CCCCC5)c4F)C3)C(=O)O)cc2)CC1` (stereo partly drawn) [Example 5.33]: the 50% inhibitory concentration (IC50) lay within 2000 to 10000 nM.

For `CCCNc1ncnc(N2CCCC(C(=O)N[C@@H](Cc3ccc(-c4ccccc4C)cc3)C(=O)O)C2)c1F` (stereo partly drawn) [Example 2.30], the IC50 was 2000 to 10000 nM.

On to `CN1CCN(C(=O)Nc2ccc(C[C@H](NC(=O)C3CCCN(C(=O)c4ccccc4F)C3)C(=O)O)cc2)CC1` (stereo partly drawn) [Example 4.51], for which the IC50 was no more than 500 nM.

As to `O=C(N[C@@H](Cc1ccc(NC(=O)N2CCN(C(c3ccccc3)c3ccccc3)CC2)cc1)C(=O)O)C1CCCN(C(=O)Cc2cccs2)C1` (stereo partly drawn) [Example 4.10], the IC50 is no more than 500 nM.

In the case of `O=C(N[C@@H](Cc1ccc(NC(=O)N2CCOCC2)cc1)C(=O)O)C1CCCN(S(=O)(=O)Cc2ccccc2)C1` (stereo partly drawn) [Example 4.44], the IC50 lay in the range of 500 to 2000 nM.

Turning to `Cc1ccc(S(=O)(=O)N2CCCC(C(=O)N[C@@H](Cc3ccc(NC(=O)N4CCN(C(c5ccccc5)c5ccccc5)CC4)cc3)C(=O)O)C2)cc1` (stereo partly drawn) [Example 4.35], the IC50 was 500 to 2000 nM.

Consider `O=C(N[C@@H](Cc1ccc(NC(=O)N2CCOCC2)cc1)C(=O)O)C1CCCN(S(=O)(=O)c2cc(Cl)cc(Cl)c2)C1` (stereo partly drawn) [Example 4.29], for which the IC50 was no more than 500 nM.

For `O=C(N[C@@H](Cc1ccc(NC(=O)N2CCCCC2)cc1)C(=O)O)C1CCCN(C(=O)c2ccc(OC(F)(F)F)cc2)C1` (stereo partly drawn) [Example 4.4], the IC50 was in the range of 2000 to 10000 nM.

As for `CN1CCN(c2ncnc(N3CCCC(C(=O)N[C@@H](Cc4ccc(NC(=O)N5CCc6ccccc6C5)cc4)C(=O)O)C3)c2F)CC1` (stereo partly drawn) [Example 5.40], the IC50 is 500 to 2000 nM.

Take `O=C(N[C@@H](Cc1ccc(NC(=O)N2CCOCC2)cc1)C(=O)O)C1CCCN(S(=O)(=O)c2cccs2)C1` (stereo partly drawn) [Example 4.42]: the 50% inhibitory concentration (IC50) was no more than 500 nM.

As to `CN1CCN(C(=O)Nc2ccc(C[C@H](NC(=O)C3CCCN(C(=O)Nc4ccccc4F)C3)C(=O)O)cc2)CC1` (stereo partly drawn) [Example 4.57], the concentration for half-maximal inhibition (IC50) lay in the range of 500 to 2000 nM.

Consider `O=C(N[C@@H](Cc1ccc(NC(=O)N2CCc3ccccc3C2)cc1)C(=O)O)C1CCCN(S(=O)(=O)c2ccc3ccccc3c2)C1` (stereo partly drawn) [Example 4.39], for which the IC50 is 2000 to 10000 nM.

`O=C(N[C@@H](Cc1ccc(NC(=O)N2CCOCC2)cc1)C(=O)O)C1CCCN(c2ncnc(NCC3CCCCC3)c2F)C1` (stereo partly drawn) [Example 5.35]: the IC50 was no more than 500 nM.

As to `O=C(NCC(c1ccccc1)c1ccccc1)Nc1ccc(C[C@H](NC(=O)C2CCCN(S(=O)(=O)c3cccs3)C2)C(=O)O)cc1` (stereo partly drawn) [Example 4.36], the IC50 is 2000 to 10000 nM.

As to `O=C(N[C@@H](Cc1ccc(NC(=O)N2CCN(c3ccccc3)CC2)cc1)C(=O)O)C1CCCN(c2ncnc(NCc3cccnc3)c2F)C1` (stereo partly drawn) [Example 5.30], the IC50 fell in the range of 500 to 2000 nM.

On to `CN1CCN(C(=O)Nc2ccc(C[C@H](NC(=O)C3CCCN(c4ncnc(NCc5cccnc5)c4F)C3)C(=O)O)cc2)CC1` (stereo partly drawn) [Example 5.29], for which the half-maximal inhibitory concentration (IC50) is 2000 to 10000 nM.

On to `Cc1ccccc1-c1ccc(C[C@H](NC(=O)C2CCCN(S(=O)(=O)c3c(Cl)cccc3Cl)C2)C(=O)O)cc1` (stereo partly drawn) [Example 1.3, (2S)-2-[({1-[(2,6-dichlorophenyl)sulfonyl]-3-piperidinyl}carbonyl)amino]-3-(2′-methyl[1,1′-biphenyl]-4-yl)propanoic acid], for which the IC50 lay within 500 to 2000 nM.

For `O=C(N[C@@H](Cc1ccc(NC(=O)N2CCOCC2)cc1)C(=O)O)C1CCCN(C(=O)c2ccccc2F)C1` (stereo partly drawn) [Example 4.49], the concentration for half-maximal inhibition (IC50) was no more than 500 nM.

On to `CN1CCN(C(=O)Nc2ccc(C[C@H](NC(=O)C3CCCN(c4ncnc(NCc5ccccc5)c4F)C3)C(=O)O)cc2)CC1` (stereo partly drawn) [Example 5.11], for which the IC50 was in the range of 500 to 2000 nM.

As to `O=C(N[C@@H](Cc1ccc(-c2ccccc2)cc1)C(=O)O)C1CCCN(C(=O)OC2CCCC2)C1` (stereo partly drawn) [Example 1.16], the IC50 lay within 2000 to 10000 nM.

For the compound `O=C(N[C@@H](Cc1ccc(NC(=O)N2CCOCC2)cc1)C(=O)O)C1CCCN(c2ncnc(N3CCN(c4ccccc4)CC3)c2F)C1` (stereo partly drawn) [Example 5.12], the 50% inhibitory concentration (IC50) was 2000 to 10000 nM.

In the case of `O=C(N[C@@H](Cc1ccc(-c2ccc(Cl)cc2Cl)cc1)C(=O)O)C1CCCN(C(=O)OC2CCCC2)C1` (stereo partly drawn) [Example 1.48], the half-inhibitory concentration (IC50) lay in the range of 2000 to 10000 nM.

Regarding `CC(C)NC(=O)N1CCCC(C(=O)N[C@@H](Cc2ccc(NC(=O)N3CCOCC3)cc2)C(=O)O)C1` (stereo partly drawn) [Example 4.52], the IC50 is no more than 500 nM.

In the case of `COc1ccccc1C(=O)N1CCCC(C(=O)N[C@@H](Cc2ccc(-c3cc(Cl)ccc3Cl)cc2)C(=O)O)C1` (stereo partly drawn) [Example 1.1, (2S)-3-(2′,5′-dichloro[1,1′-biphenyl]-4-yl)-2-({[1-(2-methoxybenzoyl)-3-piperidinyl]carbonyl}amino)propanoic acid], the IC50 was no more than 500 nM.

With `COc1ccccc1-c1ccc(C[C@H](NC(=O)C2CCCN(c3ncnc(N)c3F)C2)C(=O)O)cc1` (stereo partly drawn) [Example 5.4], the IC50 was in the range of 500 to 2000 nM.

Take `CN1CCN(C(=O)Nc2ccc(C[C@H](NC(=O)C3CCCN(c4ncnc(NCc5ccncc5)c4F)C3)C(=O)O)cc2)CC1` (stereo partly drawn) [Example 5.31]: the 50% inhibitory concentration (IC50) lay within 500 to 2000 nM.

Values taken from patent US6794386B2, “β-amino acid compounds as integrin antagonists” (Bayer Aktiengesellschaft, priority 2000, dated 2004).
